Read-outs that look alike come from different tables or passages of the source.
Assays:
[1] = target: T1, CD73 on U138 human neuroglioma cells (Homo sapiens, UniProt P21589); assay: CD73 Cell-Based Assay; settings: U138 cells, AMP substrate, 2 hours at 37° C., inorganic phosphate by malachite green
T1 construct: U138 cells were obtained from ATCC and cultured in DMEM with 10% FBS; host or cells: U138 human neuroglioma cells
T1 sequence (P21589 27-549): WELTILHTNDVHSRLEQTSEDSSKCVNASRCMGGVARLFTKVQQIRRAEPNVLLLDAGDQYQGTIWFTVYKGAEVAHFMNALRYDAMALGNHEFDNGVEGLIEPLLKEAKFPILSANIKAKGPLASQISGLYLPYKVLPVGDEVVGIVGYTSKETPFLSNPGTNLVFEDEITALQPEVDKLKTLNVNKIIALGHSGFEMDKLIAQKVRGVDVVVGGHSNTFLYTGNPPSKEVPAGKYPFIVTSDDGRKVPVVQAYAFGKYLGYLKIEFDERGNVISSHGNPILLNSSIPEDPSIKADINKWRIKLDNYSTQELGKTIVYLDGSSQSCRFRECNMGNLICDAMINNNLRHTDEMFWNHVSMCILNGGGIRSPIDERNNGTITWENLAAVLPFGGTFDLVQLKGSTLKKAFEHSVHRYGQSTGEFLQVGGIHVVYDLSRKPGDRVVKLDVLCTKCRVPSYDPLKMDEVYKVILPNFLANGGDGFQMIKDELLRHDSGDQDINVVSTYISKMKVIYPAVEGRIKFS
Method: U138 human neuroglioma cells were used in these experiments. U138 cells were obtained from ATCC and cultured in DMEM with 10% FBS. 2500 cells were seeded into 96-well plate with 100 μL of media the day before the experiment. Cells were washed twice with 200 μL of assay buffer (20 mM HEPES, pH 7.4; 137 mM NaCl; 5.4 mM KCl; 1.3 mM CaCl2); 4.2 mM NaHCO3; 1 mg/mL glucose) to remove residual inorganic phosphate. After washing, 100 μL of buffer was added to each well, then 100 μL of a mixture of AMP substrate (200 μM) and diluted compound was added to each well. The cells were incubated at 37° C. (with 5% CO2) for 2 hours. 50 μL of supernatant was transferred to a 96-well assay plate and the concentration of inorganic phosphate was determined using malachite green reagent (R&D System; Cat: DY996).

Human CD73 = target: T2, Human CD73 (Homo sapiens, UniProt P21589); assay: CD73 Enzyme Assay; assay type: biochemical
T2 construct: purchased R&D Systems; host or cells: CHO cells
T2 sequence (P21589 27-549): T1 sequence (P21589 27-549)

[2] = 0.25 nM hCD73, 25 μM AMP, kinetic read at 360 nm, read-out: CD73 Enzyme Assay IC50

SMILES	IC50 (Human CD73; [2]) [nM]	also measured
O=P(O)(O)COC[C@H]1O[C@@H](n2cnc3c(NCc4ccccc4)ncnc32)[C@H](O)[C@@H]1O [Compound 1, [(2R,3S,4R,5R)-5-[6-(benzylamino)purin-9-yl]-3,4-dihydroxy-tetrahydrofuran-2-yl]methoxymethyl-phosphonic acid]	> 1000	IC50 [1]: > 1000 nM
CC(C)(C)C(=O)COP(=O)(O)COC[C@H]1O[C@@H](n2ccc3c(NC4CCCC4)nc(Cl)nc32)[C@H](O)[C@@H]1O [Compound 223, [(2R,3S,4R,5R)-5-[2-chloro-4-(cyclopentyl-amino)pyrrolo[2,3-d]-pyrimidin-7-yl]-3,4-dihydroxy-tetrahydro-furan-2-yl]methoxy-methyl-(3,3-dimethyl-2-oxo-butoxy)phos-phinic acid]	> 1000	–
CC(C)OP(=O)(O)COC[C@H]1O[C@@H](n2ccc3c(NC4CCCC4)nc(Cl)nc32)[C@H](O)[C@@H]1O [Compound 224, [(2R,3S,4R,5R)-5-[2-chloro-4-(cyclopentyl-amino)pyrrolo[2,3-d]-pyrimidin-7-yl]-3,4-dihydroxy-tetrahydro-furan-2-yl]methoxy-methyl-isopropoxy-phosphinic acid]	> 1000	–
Cc1oc(=O)oc1COP(=O)(O)COC[C@H]1O[C@@H](n2ccc3c(NC4CCCC4)nc(Cl)nc32)[C@H](O)[C@@H]1O [Compound 225, [(2R,3S,4R,5R)-5-[2-chloro-4-(cyclopentyl-amino)pyrrolo[2,3-d]-pyrimidin-7-yl]-3,4-dihydroxy-tetrahydro-furan-2-yl]methoxy-methyl-[(5-methyl-2-oxo-1,3-dioxol-4-yl)-methoxy]phosphinic acid]	10 to 100	–
O=P(COC[C@H]1O[C@@H](n2ccc3c(NC4CCCC4)nc(Cl)nc32)[C@H](O)[C@@H]1O)(OCC(F)(F)F)OCC(F)(F)F [Compound 226, (2R,3S,4R,5R)-2-[bis(2,2,2-trifluoro-ethoxy)phosphoryl-methoxymethyl]-5-[2-chloro-4-(cyclopentyl-amino)pyrrolo[2,3-d]-pyrimidin-7-yl]tetra-hydrofuran-3,4-diol]	> 1000	–
O=P(COC[C@H]1O[C@@H](n2ccc3c(NC4CCCC4)nc(Cl)nc32)[C@H](O)[C@@H]1O)(Oc1ccc(F)cc1)Oc1ccc(F)cc1 [Compound 227, (2R,3S,4R,5R)-2-[bis (4-fluorophenoxy)-phosphorylmethoxy-methyl]-5-[2-chloro-4-(cyclopentylamino)-pyrrolo[2,3-d]-pyrimidin-7-yl]tetra-hydrofuran-3,4-diol]	–	IC50 (Human CD73): > 1000 nM
O=P(O)(COC[C@H]1O[C@@H](n2ccc3c(NC4CCCC4)nc(Cl)nc32)[C@H](O)[C@@H]1O)Oc1ccc(F)cc1 [Compound 228, [(2R,3S,4R,5R)-5-[2-chloro-4-(cyclopentyl-amino)pyrrolo[2,3-d]-pyrimidin-7-yl]-3,4-dihydroxy-tetrahydro-furan-2-yl]methoxy-methyl-(4-fluoro-phenoxy)phosphinic acid]	–	IC50 (Human CD73): > 1000 nM
O=P(O)(COC[C@H]1O[C@@H](n2ccc3c(NC4CCCC4)nc(Cl)nc32)[C@H](O)[C@@H]1O)Oc1cccnc1 [Compound 233, [(2R,3S,4R,5R)-5-[2-chloro-4-(cyclopentyl-amino)pyrrolo[2,3-d]-pyrimidin-7-yl]-3,4-dihydroxy-tetrahydro-furan-2-yl]methoxy-methyl-(3-pyridyloxy)-phosphinic acid]	–	IC50 (Human CD73): < 10 nM
CN(C)C(=O)COP(=O)(O)COC[C@H]1O[C@@H](n2ccc3c(NC4CCCC4)nc(Cl)nc32)[C@H](O)[C@@H]1O [Compound 234, [(2R,3S,4R,5R)-5-[2-chloro-4-(cyclopentyl-amino)pyrrolo[2,3-d]-pyrimidin-7-yl]-3,4-dihydroxy-tetrahydro-furan-2-yl]methoxy-methyl-[2-(dimethyl-amino)-2-oxo-ethoxy]-phosphinic acid]	100 to 1000	–
O=C(OCOP(=O)(O)COC[C@H]1O[C@@H](n2ccc3c(NC4CCCC4)nc(Cl)nc32)[C@H](O)[C@@H]1O)N1CCOCC1 [Compound 237, [(2R,3S,4R,5R)-5-[2-chloro-4-(cyclopentyl-amino)pyrrolo[2,3-d]-pyrimidin-7-yl]-3,4-dihydroxy-tetrahydro-furan-2-yl]methoxy-methyl-(morpholine-4-carbonyloxy-methoxy)phosphinic acid]	10 to 100	–
O=C(OCOP(=O)(COC[C@H]1O[C@@H](n2ccc3c(NC4CCCC4)nc(Cl)nc32)[C@H](O)[C@@H]1O)OCOC(=O)N1CCOCC1)N1CCOCC1 [Compound 238, [[(2R,3S,4R,5R)-5-[2-chloro-4-(cyclopentyl-amino)pyrrolo[2,3-d]-pyrimidin-7-yl]-3,4-dihydroxy-tetrahydro-furan-2-yl]methoxy-methyl-(morpholine-4-carbonyloxymeth-oxy)phosphoryl]oxy-methyl morpholine-4-carboxylate]	100 to 1000	–
O=P(O)(O)COC[C@H]1O[C@@H](n2ccc3c(NC4CCCC4)nc(C(F)F)nc32)[C@H](O)[C@@H]1O [Compound 239, [(2R,3S,4R,5R)-5-[4-(cyclopentylamino)-2-(difluoromethyl)pyrrolo-[2,3-d]pyrimidin-7-yl]-3,4-dihydroxy-tetra-hydrofuran-2-yl]-methoxymethylphos-phonic acid]	–	IC50 [1]: 10 to 100 nM
O=P(O)(O)COC[C@H]1O[C@@H](n2ccc3c(N[C@@H]4CCNC4)nc(Cl)nc32)[C@H](O)[C@@H]1O [Compound 241, [(2R,3S,4R,5R)-5-[2-chloro-4-[[(3R)-pyrrolidin-3-yl]amino]-pyrrolo[2,3-d]pyrimidin-7-yl]-3,4-dihydroxy-tetrahydrofuran-2-yl]-methoxymethylphos-phonic acid]	100 to 1000	–
O=P(O)(O)COC[C@H]1O[C@@H](n2ccc3c(N[C@H]4CCNC4)nc(Cl)nc32)[C@H](O)[C@@H]1O [Compound 242, [(2R,3S,4R,5R)-5-[2-chloro-4-[[(3S)-pyrrolidin-3-yl]-amino]pyrrolo[2,3-d]-pyrimidin-7-yl]-3,4-dihydroxy-tetrahydro-furan-2-yl]methoxy-methylphosphonic acid]	> 1000	–
O=P(O)(O)COC[C@H]1O[C@@H](n2ccc3c(NC4CNC4)nc(Cl)nc32)[C@H](O)[C@@H]1O [Compound 245, [(2R,3S,4R,5R)-5-[4-(azetidin-3-ylamino)-2-chloro-pyrrolo[2,3-d]pyrimidin-7-yl]-3,4-dihydroxy-tetrahydro-furan-2-yl]methoxy-methylphosphonic acid]	100 to 1000	–
CCCCCCCCCCCCCCCCOCCCOP(=O)(O)COC[C@H]1O[C@@H](n2ccc3c(NC4CCCC4)nc(Cl)nc32)[C@H](O)[C@@H]1O [Compound 246, [(2R,3S,4R,5R)-5-[2-chloro-4-(cyclopentyl-amino)pyrrolo[2,3-d]-pyrimidin-7-yl]-3,4-dihydroxy-tetrahydro-furan-2-yl]methoxy-methyl-(3-hexadecoxy-propoxy)phosphinic acid]	> 1000	–
CN(C)CCOc1nc(NC2CCCC2)c2ccn([C@@H]3O[C@H](COCP(=O)(O)O)[C@@H](O)[C@H]3O)c2n1 [Compound 259, [(2R,3S,4R,5R)-5-[4-(cyclopentylamino)-2-[2-(dimethylamino)-ethoxy]pyrrolo[2,3-d]-pyrimidin-7-yl]-3,4-dihydroxy-tetrahydro-furan-2-yl]methoxy-methylphosphonic acid]	100 to 1000	–
O=P(O)(O)COC[C@H]1O[C@@H](n2ccc3c(NC4CCCC4)nc(OCc4ccccn4)nc32)[C@H](O)[C@@H]1O [Compound 264, [(2R,3S,4R,5R)-5-[4-(cyclopentylamino)-2-(2-pyridylmethoxy)-pyrrolo[2,3-d]pyrimidin-7-yl]-3,4-dihydroxy-tetrahydrofuran-2-yl]-methoxymethylphos-phonic acid]	100 to 1000	–
O=P(O)(O)CP(=O)(O)OC[C@H]1O[C@@H](n2cnc3c(NC4CCCC4)nc(Cl)nc32)[C@H](O)[C@@H]1O [Compound 282, [[(2R,3S,4R,5R)-5-[2-chloro-6-(cyclopentyl-amino)purin-9-yl]-3,4-dihydroxy-tetrahydro-furan-2-yl]methoxy-hydroxy-phosphoryl]-methylphosphonic acid]	< 10	–
O=P(O)(O)COC[C@H]1O[C@@H](c2scc3c(N4CCCC4)nc(O)nc23)[C@H](O)[C@@H]1O [Compound 302]	> 1000	–
Nc1ncnc2c1ncn2[C@@H]1O[C@H](COP(=O)(O)CP(=O)(O)O)[C@@H](O)[C@H]1O [adenosine 5′-(α,β-methylene)diphosphate, reference compound]	–	IC50 (Human CD73; read-out: IC50): 50 nM
